# Like-named read-outs stand apart in the source and are kept apart here.
# Key:
# [1] = system: Mycobacterium smagmatis 607 ™; experiment: MIC, broth dilution method, dark condition; format: cell-based, Mycobacterium smegmatis; conditions: for MIC: read-out: MIC (μg/mL) against M. smegmatis 607 ™ (wild-type)
# [2] = system: biofilms of S. aureus 6508™; experiment: Biofilm eradication assay; format: cell-based, Staphylococcus aureus; conditions: linezolid at 600 μg/mL
# Protocol: 62:394-399 (2013)], and was used as a control.
# Linezolid was applied as a positive control at very high concentration of 600 μg/mL (>100×MIC for the planktonic cells) in biofilm assays reported by Kurosu et al., Molecules 27:322 (2022).
# [3] = system: M. smegmatis 607 ™ (RB mutant); format: cell-based, Mycobacterium smegmatis; conditions: dark condition; triplicated
compound,measurement,setting,value
"NNC(=O)c1ccncc1 [Isoniazid (INH), Isoniazid]",MIC,"[1]; dark condition, triplicated",1.56 µg/mL
"CCc1cc(C(N)=S)ccn1 [Ethionamide (ETH), Ethionamide]",MIC,[1],12.5 µg/mL
CO[C@H]1/C=C/O[C@@]2(C)Oc3c(C)c(O)c4c(O)c(c(/C=N/N5CCN(C)CC5)c(O)c4c3C2=O)NC(=O)/C(C)=C\C=C\[C@H](C)[C@H](O)[C@@H](C)[C@@H](O)[C@@H](C)[C@H](OC(C)=O)[C@@H]1C [Rifampicin],MIC,[1],1.56 µg/mL
"CC(=O)NC[C@H]1CN(c2ccc(N3CCOCC3)c(F)c2)C(=O)O1 [linezolid, reference compound]",biofilm eradication efficacy of positive control compared with RB,[2],the same level of efficacy
NCC[C@H](O)C(=O)N[C@@H]1C[C@H](N)[C@@H](O[C@H]2O[C@H](CN)[C@@H](O)[C@H](O)[C@H]2O)[C@H](O)[C@H]1O[C@H]1O[C@H](CO)[C@@H](O)[C@H](N)[C@H]1O [Amikacin],MIC,"[1]; dark condition, triplicated",0.78 µg/mL
Capreomycin,MIC (μg/mL) against M. smegmatis 607 ™ (wild-type),"[1]; dark condition, triplicated",3.13 µg/mL
same,MIC (μg/mL) against M. smegmatis 607 ™ (RB mutant),[3],3.13 µg/mL
"NC[C@H]1O[C@@H](O[C@H]([C@H]2O[C@@H](n3ccc(=O)[nH]c3=O)[C@H](O)[C@@H]2O)[C@H](NCCCC(=O)NCc2ccc(N3CCC(Oc4ccc(OC(F)(F)F)cc4)CC3)cc2)C(N)=O)[C@H](O)[C@@H]1O [APPB, aminouridyl phenoxypiperidinylbenzyl butanamide]",MIC (μg/mL) against M. smegmatis 607 ™ (wild-type),"[1]; dark condition, triplicated",0.20 µg/mL
same,MIC (μg/mL) against M. smegmatis 607 ™ (RB mutant),[3],0.20 µg/mL

# Source: patent US12661335B2, “Halogenated xanthene-containing topical anti-gram-positive bacterial ophthalmic composition and method” (Provectus Pharmatech, Inc., priority 2021, dated 2026)
